Data reported in ChEMBL document CHEMBL2176940, “Discovery of ligands for ADP-ribosyltransferases via docking-based virtual screening” (J Med Chem, 2012).

Target: T1, Protein mono-ADP-ribosyltransferase PARP15 (Homo sapiens) (UniProt Q460N3)
T1 sequence (whole entry): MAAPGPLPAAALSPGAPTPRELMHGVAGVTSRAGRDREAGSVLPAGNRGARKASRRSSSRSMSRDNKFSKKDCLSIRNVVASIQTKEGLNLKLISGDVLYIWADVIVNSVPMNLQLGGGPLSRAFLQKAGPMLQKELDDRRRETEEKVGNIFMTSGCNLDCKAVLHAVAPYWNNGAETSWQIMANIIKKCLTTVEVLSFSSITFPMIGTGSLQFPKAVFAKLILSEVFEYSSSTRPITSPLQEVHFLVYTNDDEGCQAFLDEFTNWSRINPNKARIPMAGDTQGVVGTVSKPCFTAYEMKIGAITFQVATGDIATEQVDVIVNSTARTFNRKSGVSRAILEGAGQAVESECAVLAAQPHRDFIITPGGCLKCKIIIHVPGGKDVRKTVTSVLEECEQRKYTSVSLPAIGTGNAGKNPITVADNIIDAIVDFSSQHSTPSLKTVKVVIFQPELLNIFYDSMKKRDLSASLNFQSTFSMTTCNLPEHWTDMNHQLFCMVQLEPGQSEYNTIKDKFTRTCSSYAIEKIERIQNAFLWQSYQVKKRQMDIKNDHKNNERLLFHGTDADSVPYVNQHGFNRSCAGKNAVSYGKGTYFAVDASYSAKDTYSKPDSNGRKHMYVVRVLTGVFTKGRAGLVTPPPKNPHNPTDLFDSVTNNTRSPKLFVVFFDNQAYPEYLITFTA
Description: Binding affinity at human recombinant ARTD7 expressed in Escherichia coli BL21 (DE3) R3 pRARE cells assessed as thermal stability shift by differential scanning fluorimetry

- ΔTm: 0.8 °C
Structure (SMILES): NC(=O)c1cccc(NC(=O)/C=C\C(=O)O)c1
